In patent publication US8318769B2, “Substituted sulfonamide compounds” (Gruenethal GmbH, priority 2008, dated 2012):

Target: T1, bradykinin 1 receptor (B1R) of the rat (Rattus norvegicus, UniProt P97583)
T1 construct: expressed in transfected cells
T1 sequence (P97583 1-337): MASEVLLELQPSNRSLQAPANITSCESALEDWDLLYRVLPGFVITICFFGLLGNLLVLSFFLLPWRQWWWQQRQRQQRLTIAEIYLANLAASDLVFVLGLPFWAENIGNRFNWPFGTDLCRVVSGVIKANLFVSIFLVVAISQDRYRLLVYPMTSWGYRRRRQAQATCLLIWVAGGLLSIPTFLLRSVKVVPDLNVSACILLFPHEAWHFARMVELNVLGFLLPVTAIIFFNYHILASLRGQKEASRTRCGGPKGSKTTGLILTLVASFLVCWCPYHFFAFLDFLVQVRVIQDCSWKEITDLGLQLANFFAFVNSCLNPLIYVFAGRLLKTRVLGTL
Assay: FLIPR Ca2+ assay, B1R antagonism, rat
Format: cell-based
Conditions: CHO K1 cells with rat B1R gene (rB1R cells), Des-Arg9-bradykinin at EC80, % inhibition compared with the maximum achievable inhibition; for inhibition at 10 µM: CHO-K1, 10 μM test substance, read-out: B1R antagonism, rat [10 μM] % inhibition; for B1R antagonism, rat [10 μM] % inhibition: 10 μM test substance
Procedure: The agonistic or antagonistic action of substances can be quantified on the bradykinin 1 receptor (B1R) of the human and rat species with ectopically expressing cell lines (CHO K1 cells) and with the aid of a Ca^2+-sensitive dyestuff (Fluo-4) in a fluorescent imaging plate reader (FLIPR). The figure in % activation is based on the Ca^2+ signal after addition of Lys-Des-Arg^9-bradykinin (0.5 nM) or Des-Arg^9-bradykinin (100 nM). Antagonists lead to a suppression of the Ca^2+ inflow after addition of the agonist. % inhibition compared with the maximum achievable inhibition is stated.
The agonistic or antagonistic action of substances can be determined on the bradykinin 1 receptor (B1R) of the human and rat species with the following assay. In accordance with this assay, the Ca^2+ inflow through the channel is quantified with the aid of a Ca^2+-sensitive dyestuff (type Fluo-4, Molecular Probes Europe BV, Leiden, Holland) in a fluorescent imaging plate reader (FLIPR, Molecular Devices, Sunnyvale, USA).
Chinese hamster ovary cells (CHO K1 cells) transfected stably with the human B1R gene (hB1R cells) or the B1R gene of the rat (rB1R cells) are used. For functional studies, these cells are plated out on black 96-well plates with a clear base (BD Biosciences, Heidelberg, Germany or Greiner, Frickenhausen, Germany) in a density of 20,000-35,000 cells/well. The cells are left overnight at 37° C. and 5% CO2 in culture medium (hB1R cells: Nutrient Mixture Ham's F12, Gibco Invitrogen GmbH, Karlsruhe, Germany or DMEM, Sigma-Aldrich, Taufkirchen, Germany; rB1R cells: D-MEM/F12, Gibco Invitrogen GmbH, Karlsruhe, Germany) with 10 vol. % FBS (foetal bovine serum, Gibco Invitrogen GmbH, Karlsruhe, Germany or PAN Biotech GmbH, Aidenbach, Germany).
On the following day, the cells are loaded for 60 min at 37° C. with 2.13 μM Fluo-4 (Molecular Probes Europe BV, Leiden, Holland) in HBSS buffer (Hank's buffered saline solution, Gibco Invitrogen GmbH, Karlsruhe, Germany) with 2.5 mM probenecid (Sigma-Aldrich, Taufkirchen, Germany) and 10 mM HEPES (Sigma-Aldrich, Taufkirchen, Germany). The plates are then washed 2× with HBSS buffer, and HBSS buffer which additionally contains 0.1% BSA (bovine serum albumin; Sigma-Aldrich, Taufkirchen, Germany), 5.6 mM glucose and 0.05% gelatine (Merck KGaA, Darmstadt, Germany) is added. After a further incubation of 20 minutes at room temperature, the plates are inserted into the FLIPR for the Ca^2+ measurement.
Alternatively, the plates are washed with buffer A (15 mM HEPES, 80 mM NaCl, 5 mM KCl, 1.2 mM CaCl2, 0.7 mM MgSO4, 2 g/l glucose, 2.5 mM probenecid), buffer A is added and the plates are loaded with 2.5 μM Fluo-4 and 0.025% Pluronic F127 (Sigma-Aldrich, Taufkirchen, Germany). Thereafter, the cells are washed 2× with buffer A and incubated for 30 minutes with buffer A, which additionally contains 0.05% BSA and 0.05% gelatine, at room temperature and thereafter inserted into the FLIPR for the Ca^2+ measurement.
The Ca^2+-dependent fluorescence is measured here before and after addition of substances (λex=488 nm, λem=540 nm). Quantification is by measurement of the highest fluorescence intensity (FC, fluorescence counts) over time.
The FLIPR protocol consists of 2 additions of substance. Test substances (10 μM) are first pipetted on to the cells and the Ca^2+ inflow is compared with the control (hB1R: Lys-Des-Arg^9-bradykinin >=50 nM; rB1R: Des-Arg^9-bradykinin 10 μM). This gives the figure in % activation based on the Ca^2+ signal after addition of Lys-Des-Arg^9-bradykinin (>=50 nM) or Des-Arg^9-bradykinin (10 μM).
After incubation for 10-20 minutes, Lys-Des-Arg^9-bradykinin (hB1R) or Des-Arg^9-bradykinin (rB1R) in the concentration of the EC80 is applied and the inflow of Ca^2+ is likewise determined. Antagonists lead to a suppression of the Ca^2+ inflow. % inhibition compared with the maximum achievable inhibition is calculated. […]

Compound | inhibition at 10 µM | further results
Cc1cccc(Cl)c1S(=O)(=O)N1CCCCC1COCC(=O)N1CCC(OCCN2CCCC2)(c2ccc(C(F)(F)F)cc2)CC1 (centres unmarked) [Example 69, 2-[[1-[(2-chloro-6-methyl-phenyl)sulfonyl]-piperidin-2-yl]-methoxy]-1-[4-(2-pyrrolidin-1-yl-ethoxy)-4-[4-(trifluoromethyl)-phenyl]-piperidin-1-yl]-ethanone] | 97% | 
O=C(CC1CCCCN1S(=O)(=O)c1cccc(C(F)(F)F)c1)N1CCC(OCCN2CCCC2)(c2ccc(C(F)(F)F)cc2)CC1 (centres unmarked) [Example 73, 1-[4-(2-pyrrolidin-1-yl-ethoxy)-4-[4-(trifluoromethyl)-phenyl]-piperidin-1-yl]-2-[1-[[3-(trifluoromethyl)phenyl]sulfonyl]-piperidin-2-yl]-ethanone] | 100% | 
Cc1cccc(Cl)c1S(=O)(=O)N(CCOCC(=O)N1CCC(OCCN2CCCC2)(c2ccc(F)cc2)CC1)C1CC1 [Example 70, 2-chloro-N-cyclopropyl-N-[2-[2-[4-(4-fluorophenyl)-4-(2-pyrrolidin-1-yl-ethoxy)-piperidin-1-yl]-2-oxo-ethoxy]-ethyl]-6-methyl-benzenesulfonic acid amide] | 98% | 
1-[4-pyridin-3-yl-4-(2-pyrrolidin-1-yl-ethoxy)-piperidin-1-yl]-2-[[4-[[2-(trifluoromethyl)-phenyl]sulfonyl]-3,4-dihydro-2H-[1,4]benzoxazin-3-yl]-methoxy]-ethanone [Example 110] |  | B1R antagonism, rat [10 μM] % inhibition: 75%
COc1cc(C)c(S(=O)(=O)N2CCCCC2CCOCC(=O)N2CCC(OCCN3CCCC3)(c3cccnc3)CC2)c(C)c1 (centres unmarked) [Example 124, 2-[2-[1-[(4-methoxy-2,6-dimethyl-phenyl)sulfonyl]-piperidin-2-yl]-ethoxy]-1-[4-pyridin-3-yl-4-(2-pyrrolidin-1-yl-ethoxy)-piperidin-1-yl]-ethanone] |  | B1R antagonism, rat [10 μM] % inhibition (10 µM): 98%
O=C(CC(NS(=O)(=O)c1ccc2ccccc2c1)c1ccccc1)N1CCC(OCCN2CCCC2)(c2ccc(C(F)(F)F)cc2)CC1 (centres unmarked) [Example 77, N-[3-oxo-1-phenyl-3-[4-(2-pyrrolidin-1-yl-ethoxy)-4-[4-(trifluoromethyl)-phenyl]-piperidin-1-yl]-propyl]-naphthalene-2-sulfonic acid amide] | 94% | 
COc1cc(C)c(S(=O)(=O)N2CCCCC2CCCC(=O)N2CCC(OCCN3CCCC3)(c3ccc(F)cc3)CC2)c(C)c1 (centres unmarked) [Example 78, 1-[4-(4-fluorophenyl)-4-(2-pyrrolidin-1-yl-ethoxy)-piperidin-1-yl]-4-[1-[(4-methoxy-2,6-dimethyl-phenyl)sulfonyl]-piperidin-2-yl]-butan-1-one] | 95% | 
COc1cc(C)c(S(=O)(=O)N(CCOCC(=O)N2CCC(OCCN3CCCC3)(c3ccc(F)cc3)CC2)C2CC2)c(C)c1 [Example 66, N-cyclopropyl-N-[2-[2-[4-(4-fluorophenyl)-4-(2-pyrrolidin-1-yl-ethoxy)-piperidin-1-yl]-2-oxo-ethoxy]-ethyl]-4-methoxy-2,6-dimethyl-benzenesulfonic acid amide] | 97% | 
O=C(CCCC1CCCCN1S(=O)(=O)c1cccc2ccccc12)N1CCC(OCCN2CCCC2)(c2cccnc2)CC1 (centres unmarked) [Example 92, 4-[1-(naphthalen-1-ylsulfonyl)-piperidin-2-yl]-1-[4-pyridin-3-yl-4-(2-pyrrolidin-1-yl-ethoxy)-piperidin-1-yl]-butan-1-one] | 95% | 
Cc1cc(S(=O)(=O)N2CCCCC2CCC(=O)N2CCC(OCCN3CCCC3)(c3ccc(C(F)(F)F)cc3)CC2)c(C)cc1Cl (centres unmarked) [Example 75, 3-[1-[(4-chloro-2,5-dimethyl-phenyl)sulfonyl]-piperidin-2-yl]-1-[4-(2-pyrrolidin-1-yl-ethoxy)-4-[4-(trifluoromethyl)-phenyl]-piperidin-1-yl]-propan-1-one] | 96% | 

Now from value to compound, other results behind:

inhibition at 10 µM | Compound | further results
59% | O=C(CCCC1CCCCN1S(=O)(=O)c1cccc2ccccc12)N1CCC(OCCN2CCCC2)(c2ccncc2)CC1 (centres unmarked) [Example 94, 4-[1-(naphthalen-1-ylsulfonyl)-piperidin-2-yl]-1-[4-pyridin-4-yl-4-(2-pyrrolidin-1-yl-ethoxy)-piperidin-1-yl]-butan-1-one] | 
41% | O=C(CC1COc2ccccc2N1S(=O)(=O)c1ccc(Cl)cc1Cl)N1CCC(OCCN2CCCC2)(c2cccc(F)c2)CC1 (centres unmarked) [Example 128, 2-[4-[(2,4-dichlorophenyl)sulfonyl]-3,4-dihydro-2H-[1,4]benzoxazin-3-yl]-1-[4-(3-fluorophenyl)-4-(2-pyrrolidin-1-yl-ethoxy)-piperidin-1-yl]-ethanone] | 
101% | O=C(CCCC1CCCCN1S(=O)(=O)c1cccc2ccccc12)N1CCC(OCCN2CCCC2)(c2cccc(F)c2)CC1 (centres unmarked) [Example 93, 1-[4-(3-fluorophenyl)-4-(2-pyrrolidin-1-yl-ethoxy)-piperidin-1-yl]-4-[1-(naphthalen-1-ylsulfonyl)-piperidin-2-yl]-butan-1-one] | 
99% | CS(=O)(=O)N(CCOCC(=O)N1CCC(OCCN2CCCC2)(c2cccc(F)c2)CC1)C(c1ccccc1)c1ccccc1 [Example 105, N-benzhydryl-N-[2-[2-[4-(3-fluorophenyl)-4-(2-pyrrolidin-1-yl-ethoxy)-piperidin-1-yl]-2-oxo-ethoxy]-ethyl]-methanesulfonic acid amide] | 
92% | O=C(COCC1CCc2ccccc2N1S(=O)(=O)c1ccc2ccccc2c1)N1CCC(OCCN2CCCC2)(c2cccnc2)CC1 (centres unmarked) [Example 129, 2-[[1-(naphthalen-2-ylsulfonyl)-1,2,3,4-tetrahydro-quinolin-2-yl]-methoxy]-1-[4-pyridin-3-yl-4-(2-pyrrolidin-1-yl-ethoxy)-piperidin-1-yl]-ethanone] | 
99% | COc1cc(C)c(S(=O)(=O)N2CCCCC2CCOCC(=O)N2CCC(OCCN3CCCC3)(c3cccc(F)c3)CC2)c(C)c1 (centres unmarked) [Example 125, 1-[4-(3-fluorophenyl)-4-(2-pyrrolidin-1-yl-ethoxy)-piperidin-1-yl]-2-[2-[1-[(4-methoxy-2,6-dimethyl-phenyl)sulfonyl]-piperidin-2-yl]-ethoxy]-ethanone] | 
44% | O=C(COCC1CCc2ccccc2N1S(=O)(=O)c1ccc2ccccc2c1)N1CCC(OCCN2CCCC2)(c2cccc(F)c2)CC1 (centres unmarked) [Example 131, 1-[4-(3-fluorophenyl)-4-(2-pyrrolidin-1-yl-ethoxy)-piperidin-1-yl]-2-[[1-(naphthalen-2-ylsulfonyl)-1,2,3,4-tetrahydro-quinolin-2-yl]-methoxy]-ethanone] | 
